Measured values taken from PubChem BioAssay (NCI).
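Briefly, cells in 96-well plates were exposed to five compound concentrations for 48 h, and endpoints were estimated by linear interpolation. GI50 = concentration required for 50% inhibition of growth. At the TGI there is no net growth.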

Key:
Experiment in all cases: NCI-60 cell line screen, 48 h
[1] = tested on: 786-0 renal
[2] = tested on: A498 renal
[3] = tested on: A549 NSCLC
[4] = tested on: ACHN renal
[5] = tested on: BT-549 breast
[6] = tested on: CAKI-1 renal
[7] = tested on: CCRF-CEM leukemia
[8] = tested on: COLO 205 colon
[9] = tested on: DU-145 prostate
[10] = tested on: EKVX NSCLC
[11] = tested on: HCC-2998 colon
[12] = tested on: HCT-116 colon
[13] = tested on: HCT-15 colon
[14] = tested on: HL-60(TB) leukemia
[15] = tested on: HOP-62 NSCLC
[16] = tested on: HOP-92 NSCLC
[17] = tested on: HS 578T breast
[18] = tested on: HT29 colon
[19] = tested on: IGROV1 ovarian
[20] = tested on: K-562 leukemia
[21] = tested on: KM12 colon
[22] = tested on: LOX IMVI melanoma
[23] = tested on: M14 melanoma
[24] = tested on: MALME-3M melanoma
[25] = tested on: MCF7 breast
[26] = tested on: MDA-MB-231 breast
[27] = tested on: MDA-MB-435
[28] = tested on: MOLT-4 leukemia
[29] = tested on: NCI-H226 lung
[30] = tested on: NCI-H23 lung
[31] = tested on: NCI-H460 lung
[32] = tested on: NCI-H522 lung
[33] = tested on: NCI/ADR-RES ovarian
[34] = tested on: OVCAR-3 ovarian
[35] = tested on: OVCAR-4 ovarian
[36] = tested on: OVCAR-5 ovarian
[37] = tested on: OVCAR-8 ovarian
[38] = tested on: PC-3 prostate
[39] = tested on: RPMI-8226 leukemia
[40] = tested on: RXF 393 renal
[41] = tested on: SF-268 CNS
[42] = tested on: SF-295 CNS
[43] = tested on: SF-539 CNS
[44] = tested on: SK-MEL-2 melanoma
[45] = tested on: SK-MEL-28 melanoma
[46] = tested on: SK-MEL-5 melanoma
[47] = tested on: SK-OV-3 ovarian
[48] = tested on: SN12C renal
[49] = tested on: SNB-19 CNS
[50] = tested on: SNB-75 CNS
[51] = tested on: SR leukemia
[52] = tested on: SW-620 colon
[53] = tested on: T-47D breast
[54] = tested on: TK-10 renal
[55] = tested on: U251 CNS
[56] = tested on: UACC-257 melanoma
[57] = tested on: UACC-62 melanoma
[58] = tested on: UO-31 renal

SMILES: COc1ccc([C@H]2[C@H](O)C(=O)N2c2cc(OC)c(OC)c(OC)c2)cc1F
- GI50 [1]: < 10 nM
- TGI [1]: > 100000 nM
- GI50 [2]: > 100000 nM
- TGI [2]: > 100000 nM
- GI50 [3]: < 10 nM
- TGI [3]: > 100000 nM
- GI50 [4]: < 10 nM
- TGI [4]: > 100000 nM
- GI50 [5]: < 10 nM
- GI50 [6]: < 10 nM
- TGI [6]: > 100000 nM
- GI50 [7]: < 10 nM
- TGI [7]: > 100000 nM
- GI50 [8]: < 10 nM
- TGI [8]: < 10 nM
- GI50 [9]: < 10 nM
- TGI [9]: > 100000 nM
- TGI [10]: > 100000 nM
- GI50 [11]: < 10 nM
- GI50 [12]: < 10 nM
- TGI [12]: > 100000 nM
- GI50 [13]: < 10 nM
- TGI [13]: > 100000 nM
- GI50 [14]: < 10 nM
- GI50 [15]: < 10 nM
- TGI [15]: > 100000 nM
- TGI [16]: > 100000 nM
- GI50 [17]: < 10 nM
- TGI [17]: > 100000 nM
- GI50 [18]: < 10 nM
- TGI [18]: < 10 nM
- GI50 [19]: < 10 nM
- TGI [19]: > 100000 nM
- GI50 [20]: < 10 nM
- TGI [20]: > 100000 nM
- GI50 [21]: < 10 nM
- TGI [21]: > 100000 nM
- GI50 [22]: < 10 nM
- TGI [22]: > 100000 nM
- GI50 [23]: < 10 nM
- TGI [23]: > 100000 nM
- GI50 [24]: < 10 nM
- TGI [24]: > 100000 nM
- GI50 [25]: < 10 nM
- TGI [25]: > 100000 nM
- GI50 [26]: < 10 nM
- TGI [26]: > 100000 nM
- GI50 [27]: < 10 nM
- TGI [27]: < 10 nM
- GI50 [28]: < 10 nM
- TGI [28]: > 100000 nM
- GI50 [29]: < 10 nM
- GI50 [30]: < 10 nM
- TGI [30]: > 100000 nM
- GI50 [31]: < 10 nM
- TGI [31]: > 39100 nM
- GI50 [32]: < 10 nM
- TGI [32]: < 10 nM
- GI50 [33]: < 10 nM
- GI50 [34]: < 10 nM
- TGI [34]: > 100000 nM
- GI50 [35]: 546 nM
- TGI [35]: > 100000 nM
- GI50 [36]: < 10 nM
- TGI [36]: > 100000 nM
- GI50 [37]: < 10 nM
- GI50 [38]: < 10 nM
- TGI [38]: > 100000 nM
- GI50 [39]: < 10 nM
- TGI [39]: > 34500 nM
- GI50 [40]: < 10 nM
- GI50 [41]: < 10 nM
- TGI [41]: > 100000 nM
- GI50 [42]: < 10 nM
- TGI [42]: > 100000 nM
- GI50 [43]: < 10 nM
- TGI [43]: < 10 nM
- GI50 [44]: < 10 nM
- TGI [44]: > 94800 nM
- GI50 [45]: < 10 nM
- TGI [45]: > 100000 nM
- GI50 [46]: < 10 nM
- TGI [46]: 12 nM
- GI50 [47]: < 10 nM
- TGI [47]: > 100000 nM
- GI50 [48]: < 10 nM
- TGI [48]: > 100000 nM
- GI50 [49]: < 10 nM
- TGI [49]: > 100000 nM
- GI50 [50]: < 10 nM
- GI50 [51]: < 10 nM
- TGI [51]: > 100000 nM
- GI50 [52]: < 10 nM
- TGI [52]: > 100000 nM
- GI50 [53]: > 100000 nM
- TGI [53]: > 100000 nM
- GI50 [54]: > 100000 nM
- TGI [54]: > 100000 nM
- GI50 [55]: < 10 nM
- TGI [55]: > 100000 nM
- TGI [56]: > 100000 nM
- GI50 [57]: < 10 nM
- TGI [57]: > 100000 nM
- GI50 [58]: < 10 nM
- TGI [58]: > 100000 nM
